Source: the supplement of paper PMC11616607

Each compound was assayed on Kuramochi (assay: drug sensitivity score (DSS) from 5-point dose-response viability curve (DSS (area-under-curve based score)); higher = more sensitive (stronger growth inhibition or killing); extreme values may be limits of the assay). Settings: exposure time: 72 h; concentration range: 5 concentrations over 10,000-fold range.
Procedure, shortened: (§1)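 For the drug sensitivity score, obtained per cell line and drug in Breeze software, larger values mean greater sensitivity. No response corresponds to a score of zero. Ovarian cancer and normal ovarian cells were seeded at 1,500 per well into 384-well plates already holding acoustically dispensed drugs (Echo 550, DMSO or water, five concentrations over a 10,000-fold range) and incubated 3 days at 37°C, 5% CO2. CellTiter-Glo luminescence on a PHERAstar FS gave the viability readout.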

Point of comparison: `CCNCCS(=O)(=O)NC[C@@]1(c2ccccc2)SC(NC(=O)C(C)(C)C)=NN1C(=O)C(C)(C)C` [Litronesib], drug sensitivity score 7.5. Against it:
- CCC(C)n1ncn(-c2ccc(N3CCN(c4ccc(OCC5COC(Cn6cncn6)(c6ccc(Cl)cc6Cl)O5)cc4)CC3)cc2)c1=O (stereo not drawn) [Itraconazole] — lower, 1.1
- N#Cc1ccnc(N2C(=O)CC[C@H]2C(=O)N(c2cncc(F)c2)[C@H](C(=O)NC2CC(F)(F)C2)c2ccccc2Cl)c1 [Ivosidenib] — lower, 0
- C/C(=C\c1csc(C)n1)[C@@H]1C[C@@H]2O[C@]2(C)CCC[C@H](C)[C@H](O)[C@@H](C)C(=O)C(C)(C)[C@@H](O)CC(=O)N1 [Ixabepilone] — lower, 2.6
- CC(C)C[C@H](NC(=O)CNC(=O)c1cc(Cl)ccc1Cl)B(O)O [Ixazomib] — lower, 2.7
- Nc1cc(COc2c(Cl)cc(C[C@H](N)C(=O)O)cc2Cl)c2oc(-c3ccccc3)nc2c1 [JPH203] — lower, 0
- CC(C)NC(=O)COc1cccc(-c2nc(Nc3ccc4[nH]ncc4c3)c3ccccc3n2)c1 [KD025] — lower, 3.8
- CS(=O)(=O)CCNCc1ccc(-c2ccc3ncnc(Nc4ccc(OCc5cccc(F)c5)c(Cl)c4)c3c2)o1 [Lapatinib] — lower, 0
- O=C(Nc1cnn2ccc(N3CCC[C@@H]3c3cc(F)ccc3F)nc12)N1CC[C@H](O)C1 [Larotrectinib] — lower, 0
- Oc1ccc2c(c1)CC[C@H](c1ccccc1)[C@@H]2c1ccc(OCCN2CCCC2)cc1 [Lasofoxifene] — lower, 0.3
- Nc1cccc2c1CN(C1CCC(=O)NC1=O)C2=O (stereo not drawn) [Lenalidomide] — lower, 0.2
- COc1cc2nccc(Oc3ccc(NC(=O)NC4CC4)c(Cl)c3)c2cc1C(N)=O [Lenvatinib] — lower, 0
- N#Cc1ccc(C(c2ccc(C#N)cc2)n2cncn2)cc1 [Letrozole] — lower, 0
- Cc1ccc(F)c(NC(=O)Nc2ccc(-c3cccc4[nH]nc(N)c34)cc2)c1 [Linifanib] — lower, 0
- C[C@]1(O)C[C@@H](c2nc(-c3ccc4ccc(-c5ccccc5)nc4c3)c3c(N)nccn32)C1 [Linsitinib] — lower, 0
- Nc1nc(OCc2cc(Br)cs2)c2[nH]cnc2n1 [Lomeguatrib] — lower, 0.8
- NC(=O)N1CCC(CC(=O)N2CCC([C@H]3c4ncc(Br)cc4CCc4cc(Cl)cc(Br)c43)CC2)CC1 [Lonafarnib] — higher, 11
- Cc1c(F)cc(C(=O)NC2CC2)cc1-c1ccc(C(=O)NCC(C)(C)C)cn1 [Losmapimod] — lower, 2
- CC[C@H](C)C(=O)O[C@H]1C[C@@H](C)C=C2C=C[C@H](C)[C@H](CC[C@@H]3C[C@@H](O)CC(=O)O3)[C@H]21 [Lovastatin] — lower, 0.3
- CNC(=O)c1cccc2cc(Oc3ccnc4cc(OCC5(N)CC5)c(OC)cc34)ccc12 [Lucitanib] — lower, 0.1
- CCNC(=O)c1noc(-c2cc(C(C)C)c(O)cc2O)c1-c1ccc(CN2CCOCC2)cc1 [Luminespib] — higher, 14.4
- O=C(O)CC[C@H]1CC[C@@](c2cc(F)ccc2F)(S(=O)(=O)c2ccc(Cl)cc2)CC1 [MK-0752] — lower, 0
- NC1(c2ccc(-c3nc4ccn5c(=O)[nH]nc5c4cc3-c3ccccc3)cc2)CCC1 [MK-2206] — lower, 4.4
- O=C(c1cccc(Cl)c1F)N1CCN(Cc2cccc(Nc3nccs3)n2)CC1 [MK-8745] — lower, 0.4
- Cn1cc(-c2cnn3c(N)c(Br)c([C@@H]4CCCNC4)nc23)cn1 [MK-8776] — lower, 0
- Cc1cnc(-c2ccccc2C(C)C)nc1NCc1ccc(-n2ccnn2)cc1 [ML323] — lower, 0
- O=C(CCNC(=O)c1ccc(OC(F)(F)F)cc1)N[C@@H]1CCCc2ccccc21 [ML390] — lower, 5.3
- O=C(Nc1cccc(NC(=O)c2cccc(O)c2O)c1)c1cccc(O)c1O [MST-312] — lower, 5.5
- CNC(=O)[C@@H](NC(=O)[C@H](CC(C)C)[C@H](O)C(=O)NO)C(C)(C)C [Marimastat] — lower, 0
- Cc1ccc(NC(=O)c2ccc(CN3CCN(C)CC3)cc2)cc1Nc1nc(-c2cccnc2)cs1 [Masitinib] — lower, 3.4
- CC(=O)O[C@]1(C(C)=O)CC[C@H]2[C@@H]3C=C(C)C4=CC(=O)CC[C@]4(C)[C@H]3CC[C@@]21C [Megestrol acetate] — lower, 0

The compounds below were run on OV90 in the same assay as above. Settings: exposure time: 72 h; concentration range: 5 concentrations over 10,000-fold range.
Procedure, shortened: as §1

Point of comparison: `N#Cc1ccc(C(c2ccc(C#N)cc2)n2cncn2)cc1` [Letrozole], drug sensitivity score 0. Against it:
- CCC(C)n1ncn(-c2ccc(N3CCN(c4ccc(OCC5COC(Cn6cncn6)(c6ccc(Cl)cc6Cl)O5)cc4)CC3)cc2)c1=O (stereo not drawn) [Itraconazole] — higher, 4.1
- N#Cc1ccnc(N2C(=O)CC[C@H]2C(=O)N(c2cncc(F)c2)[C@H](C(=O)NC2CC(F)(F)C2)c2ccccc2Cl)c1 [Ivosidenib] — higher, 0.3
- C/C(=C\c1csc(C)n1)[C@@H]1C[C@@H]2O[C@]2(C)CCC[C@H](C)[C@H](O)[C@@H](C)C(=O)C(C)(C)[C@@H](O)CC(=O)N1 [Ixabepilone] — higher, 2.4
- CC(C)C[C@H](NC(=O)CNC(=O)c1cc(Cl)ccc1Cl)B(O)O [Ixazomib] — higher, 5.5
- Nc1cc(COc2c(Cl)cc(C[C@H](N)C(=O)O)cc2Cl)c2oc(-c3ccccc3)nc2c1 [JPH203] — the same, 0
- CC(C)NC(=O)COc1cccc(-c2nc(Nc3ccc4[nH]ncc4c3)c3ccccc3n2)c1 [KD025] — higher, 8.7
- CS(=O)(=O)CCNCc1ccc(-c2ccc3ncnc(Nc4ccc(OCc5cccc(F)c5)c(Cl)c4)c3c2)o1 [Lapatinib] — the same, 0
- O=C(Nc1cnn2ccc(N3CCC[C@@H]3c3cc(F)ccc3F)nc12)N1CC[C@H](O)C1 [Larotrectinib] — the same, 0
- Oc1ccc2c(c1)CC[C@H](c1ccccc1)[C@@H]2c1ccc(OCCN2CCCC2)cc1 [Lasofoxifene] — the same, 0
- Nc1cccc2c1CN(C1CCC(=O)NC1=O)C2=O (stereo not drawn) [Lenalidomide] — the same, 0
- COc1cc2nccc(Oc3ccc(NC(=O)NC4CC4)c(Cl)c3)c2cc1C(N)=O [Lenvatinib] — higher, 0.1
- Cc1ccc(F)c(NC(=O)Nc2ccc(-c3cccc4[nH]nc(N)c34)cc2)c1 [Linifanib] — the same, 0
- C[C@]1(O)C[C@@H](c2nc(-c3ccc4ccc(-c5ccccc5)nc4c3)c3c(N)nccn32)C1 [Linsitinib] — higher, 0.9
- CCNCCS(=O)(=O)NC[C@@]1(c2ccccc2)SC(NC(=O)C(C)(C)C)=NN1C(=O)C(C)(C)C [Litronesib] — higher, 11.6
- Nc1nc(OCc2cc(Br)cs2)c2[nH]cnc2n1 [Lomeguatrib] — the same, 0
- NC(=O)N1CCC(CC(=O)N2CCC([C@H]3c4ncc(Br)cc4CCc4cc(Cl)cc(Br)c43)CC2)CC1 [Lonafarnib] — higher, 15.8
- Cc1c(F)cc(C(=O)NC2CC2)cc1-c1ccc(C(=O)NCC(C)(C)C)cn1 [Losmapimod] — higher, 1.5
- CC[C@H](C)C(=O)O[C@H]1C[C@@H](C)C=C2C=C[C@H](C)[C@H](CC[C@@H]3C[C@@H](O)CC(=O)O3)[C@H]21 [Lovastatin] — higher, 1.3
- CNC(=O)c1cccc2cc(Oc3ccnc4cc(OCC5(N)CC5)c(OC)cc34)ccc12 [Lucitanib] — higher, 1.1
- CCNC(=O)c1noc(-c2cc(C(C)C)c(O)cc2O)c1-c1ccc(CN2CCOCC2)cc1 [Luminespib] — higher, 17.2
- O=C(O)CC[C@H]1CC[C@@](c2cc(F)ccc2F)(S(=O)(=O)c2ccc(Cl)cc2)CC1 [MK-0752] — higher, 0.2
- NC1(c2ccc(-c3nc4ccn5c(=O)[nH]nc5c4cc3-c3ccccc3)cc2)CCC1 [MK-2206] — higher, 1.9
- O=C(c1cccc(Cl)c1F)N1CCN(Cc2cccc(Nc3nccs3)n2)CC1 [MK-8745] — higher, 0.5
- Cn1cc(-c2cnn3c(N)c(Br)c([C@@H]4CCCNC4)nc23)cn1 [MK-8776] — higher, 1.1
- Cc1cnc(-c2ccccc2C(C)C)nc1NCc1ccc(-n2ccnn2)cc1 [ML323] — higher, 0.1
- O=C(CCNC(=O)c1ccc(OC(F)(F)F)cc1)N[C@@H]1CCCc2ccccc21 [ML390] — higher, 5.6
- O=C(Nc1cccc(NC(=O)c2cccc(O)c2O)c1)c1cccc(O)c1O [MST-312] — higher, 7.6
- CNC(=O)[C@@H](NC(=O)[C@H](CC(C)C)[C@H](O)C(=O)NO)C(C)(C)C [Marimastat] — higher, 0.1
- Cc1ccc(NC(=O)c2ccc(CN3CCN(C)CC3)cc2)cc1Nc1nc(-c2cccnc2)cs1 [Masitinib] — higher, 5.2
- CC(=O)O[C@]1(C(C)=O)CC[C@H]2[C@@H]3C=C(C)C4=CC(=O)CC[C@]4(C)[C@H]3CC[C@@]21C [Megestrol acetate] — the same, 0

What follows are compounds tested on OVCAR4 in the same assay as above. Settings: exposure time: 72 h; concentration range: 5 concentrations over 10,000-fold range.
Procedure, shortened: as §1

Point of comparison: `Oc1ccc2c(c1)CC[C@H](c1ccccc1)[C@@H]2c1ccc(OCCN2CCCC2)cc1` [Lasofoxifene], drug sensitivity score 0. Against it:
- CCC(C)n1ncn(-c2ccc(N3CCN(c4ccc(OCC5COC(Cn6cncn6)(c6ccc(Cl)cc6Cl)O5)cc4)CC3)cc2)c1=O (stereo not drawn) [Itraconazole] — higher, 2.1
- N#Cc1ccnc(N2C(=O)CC[C@H]2C(=O)N(c2cncc(F)c2)[C@H](C(=O)NC2CC(F)(F)C2)c2ccccc2Cl)c1 [Ivosidenib] — higher, 0.1
- C/C(=C\c1csc(C)n1)[C@@H]1C[C@@H]2O[C@]2(C)CCC[C@H](C)[C@H](O)[C@@H](C)C(=O)C(C)(C)[C@@H](O)CC(=O)N1 [Ixabepilone] — higher, 2.1
- CC(C)C[C@H](NC(=O)CNC(=O)c1cc(Cl)ccc1Cl)B(O)O [Ixazomib] — higher, 6.5
- Nc1cc(COc2c(Cl)cc(C[C@H](N)C(=O)O)cc2Cl)c2oc(-c3ccccc3)nc2c1 [JPH203] — higher, 0.2
- CC(C)NC(=O)COc1cccc(-c2nc(Nc3ccc4[nH]ncc4c3)c3ccccc3n2)c1 [KD025] — higher, 3.6
- CS(=O)(=O)CCNCc1ccc(-c2ccc3ncnc(Nc4ccc(OCc5cccc(F)c5)c(Cl)c4)c3c2)o1 [Lapatinib] — the same, 0
- O=C(Nc1cnn2ccc(N3CCC[C@@H]3c3cc(F)ccc3F)nc12)N1CC[C@H](O)C1 [Larotrectinib] — the same, 0
- Nc1cccc2c1CN(C1CCC(=O)NC1=O)C2=O (stereo not drawn) [Lenalidomide] — the same, 0
- COc1cc2nccc(Oc3ccc(NC(=O)NC4CC4)c(Cl)c3)c2cc1C(N)=O [Lenvatinib] — higher, 0.6
- N#Cc1ccc(C(c2ccc(C#N)cc2)n2cncn2)cc1 [Letrozole] — the same, 0
- Cc1ccc(F)c(NC(=O)Nc2ccc(-c3cccc4[nH]nc(N)c34)cc2)c1 [Linifanib] — the same, 0
- C[C@]1(O)C[C@@H](c2nc(-c3ccc4ccc(-c5ccccc5)nc4c3)c3c(N)nccn32)C1 [Linsitinib] — the same, 0
- CCNCCS(=O)(=O)NC[C@@]1(c2ccccc2)SC(NC(=O)C(C)(C)C)=NN1C(=O)C(C)(C)C [Litronesib] — higher, 4.9
- Nc1nc(OCc2cc(Br)cs2)c2[nH]cnc2n1 [Lomeguatrib] — the same, 0
- NC(=O)N1CCC(CC(=O)N2CCC([C@H]3c4ncc(Br)cc4CCc4cc(Cl)cc(Br)c43)CC2)CC1 [Lonafarnib] — higher, 9.1
- Cc1c(F)cc(C(=O)NC2CC2)cc1-c1ccc(C(=O)NCC(C)(C)C)cn1 [Losmapimod] — the same, 0
- CC[C@H](C)C(=O)O[C@H]1C[C@@H](C)C=C2C=C[C@H](C)[C@H](CC[C@@H]3C[C@@H](O)CC(=O)O3)[C@H]21 [Lovastatin] — higher, 0.2
- CNC(=O)c1cccc2cc(Oc3ccnc4cc(OCC5(N)CC5)c(OC)cc34)ccc12 [Lucitanib] — higher, 2.4
- CCNC(=O)c1noc(-c2cc(C(C)C)c(O)cc2O)c1-c1ccc(CN2CCOCC2)cc1 [Luminespib] — higher, 9.8
- O=C(O)CC[C@H]1CC[C@@](c2cc(F)ccc2F)(S(=O)(=O)c2ccc(Cl)cc2)CC1 [MK-0752] — the same, 0
- NC1(c2ccc(-c3nc4ccn5c(=O)[nH]nc5c4cc3-c3ccccc3)cc2)CCC1 [MK-2206] — higher, 0.4
- O=C(c1cccc(Cl)c1F)N1CCN(Cc2cccc(Nc3nccs3)n2)CC1 [MK-8745] — higher, 1.1
- Cn1cc(-c2cnn3c(N)c(Br)c([C@@H]4CCCNC4)nc23)cn1 [MK-8776] — the same, 0
- Cc1cnc(-c2ccccc2C(C)C)nc1NCc1ccc(-n2ccnn2)cc1 [ML323] — higher, 1.5
- O=C(CCNC(=O)c1ccc(OC(F)(F)F)cc1)N[C@@H]1CCCc2ccccc21 [ML390] — the same, 0
- O=C(Nc1cccc(NC(=O)c2cccc(O)c2O)c1)c1cccc(O)c1O [MST-312] — higher, 7.2
- CNC(=O)[C@@H](NC(=O)[C@H](CC(C)C)[C@H](O)C(=O)NO)C(C)(C)C [Marimastat] — higher, 0.1
- Cc1ccc(NC(=O)c2ccc(CN3CCN(C)CC3)cc2)cc1Nc1nc(-c2cccnc2)cs1 [Masitinib] — higher, 2.1
- CC(=O)O[C@]1(C(C)=O)CC[C@H]2[C@@H]3C=C(C)C4=CC(=O)CC[C@]4(C)[C@H]3CC[C@@]21C [Megestrol acetate] — the same, 0
